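Protocol summary: plate cells (96-well), add compound at 5 concentrations, incubate 48 h, interpolate endpoints linearly. The concentration for 50% growth inhibition is given as GI50. Definition used: TGI = concentration required for complete inhibition of growth.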

Experimental findings from PubChem BioAssay (NCI) are described below.

What all share (assay): DTP human tumour cell line panel, 48 h
Experiment [1] concerns MALME-3M melanoma.
Experiment [2] concerns OVCAR-5 ovarian.
The subject of experiment [3] is LOX IMVI melanoma.
Experiment [4] relates to HCT-116 colon.
For experiment [5], the system named is COLO 205 colon.
Experiment [6] concerns DLD-1 colon.
In experiment [7] the test system is SF-295 CNS.
Experiment [8] concerns HCC-2998 colon.
In experiment [9] the test system is DMS 273 small cell lung.
Experiment [10] deals with DU-145 prostate.

As to `C=CCC12CC(=O)CCC1c1ccc(OC)cc1C2=O` (stereo not drawn), the TGI in experiment [1], in [2], in experiment [3], in experiment [4], in experiment [5] and in experiment [6] was > 100 µM throughout. Also, the TGI in [7], in experiment [8] and in [9] was > 100 µM each time.
Take `CC(=O)OCC1OC(n2c(=O)[nH]c(=O)c3n[nH]nc32)C(OC(C)=O)C(OC(C)=O)C1OC(C)=O` (stereo not drawn): the TGI in experiment [1], in experiment [2], in experiment [3], in [4], in experiment [5] and in [6] was > 100 µM in each case. In addition, the TGI in experiment [7], in experiment [8] and in [9] was > 100 µM in each case.
Consider `Brc1cc(C2OCCCO2)ccc1OCc1ccccc1`, for which the TGI is > 100 µM in [1]; 92.5 µM in [2]; 63.5 µM in experiment [3]; 56.9 µM in [5]; > 100 µM in [6]; > 100 µM in experiment [7]. Moreover, the TGI in experiment [8] and in experiment [9] was > 100 µM throughout.
Consider `O=c1cc[nH]cc1-c1c[nH]ccc1=O`, for which the TGI in experiment [1], in experiment [3], in experiment [4], in [5], in experiment [6] and in experiment [7] was > 100 µM throughout. The TGI in experiment [8] and in experiment [9] was > 100 µM each time.
With `CCOC(=O)c1sc2c(C(=O)OCC)n3cc(C)cc(C)c3c2c1O`, the TGI in experiment [1], in [2], in experiment [3], in experiment [4], in experiment [5] and in [6] was > 100 µM in each case. In addition, the TGI in experiment [7], in [8] and in experiment [9] was > 100 µM each time.
For the compound `COC(=O)C(=O)C(C(=O)C(=O)Nc1ccccc1[N+](=O)[O-])c1nc2ccc([N+](=O)[O-])cc2[nH]c1=O` (stereo not drawn), the TGI in [1], in experiment [2], in [3], in experiment [4], in [5] and in experiment [7] was > 100 µM each time. Also, the TGI in experiment [9] was > 100 µM.
Turning to `Cc1cc(=O)[nH]c(NNC(C#N)c2ccccc2O)n1` (stereo not drawn), the TGI in [1], in [2], in experiment [3], in experiment [4], in experiment [5] and in experiment [6] was > 100 µM in each case. In addition, the TGI in [7] and in experiment [9] was > 100 µM each time.
With `CC(C)N(C(=O)C12C3C4C5(C(=O)O)C(C1C35I)C42C(=O)O)C(C)C` (stereo not drawn), the TGI in experiment [1], in experiment [2], in experiment [4], in [5], in experiment [6] and in [7] was > 100 µM in each case. Also, the TGI in experiment [8] and in experiment [9] was > 100 µM throughout.
For `COc1ccc(NC(=O)CC(=O)N/N=C(\C)c2cc3ccccc3oc2=O)cc1`, the TGI in experiment [1], in experiment [3], in experiment [4], in [5], in [6] and in [7] was > 100 µM in each case. In experiment [9], the TGI is > 100 µM.
For the compound `O=C(O)c1c2c(cc3c(=O)c4ccccc4[nH]c13)CCCC2`, the TGI in experiment [1], in experiment [2], in experiment [3], in [4], in experiment [5] and in [7] was > 100 µM throughout. In addition, the TGI in experiment [8] and in experiment [9] was > 100 µM in each case.
Turning to `Cc1ccc(N2C(=O)/C(=C/c3ccc(N(CCC#N)CCC#N)cc3)N=C2COc2ccc(Cl)cc2Cl)cc1`, the TGI in experiment [1], in experiment [2], in [3], in [4], in experiment [5] and in experiment [6] was > 100 µM each time. In addition, the TGI in [7] is > 100 µM.
For the compound `COc1cc2c(cc1OC)C(C(CBr)CBr)N(C1CCCC1)CC2` (stereo not drawn), the TGI in experiment [1], in [2], in [3], in experiment [5], in experiment [6] and in [7] was > 100 µM each time. The TGI in [8] and in [9] was > 100 µM each time.
Take `CC(/C=C/C(=O)c1sc(C(N)=S)nc1C)=C\c1ccccc1`: the TGI in [1] was > 100 µM; in experiment [2], > 100 µM; in experiment [3] it was 40.2 µM; in experiment [5] it was > 100 µM; in experiment [6] it was 57.4 µM; in [7], > 100 µM. The values for the TGI in experiment [8] and in experiment [9] were > 100 µM and 45.5 µM, respectively.
Take `CC(C)=Cc1cc(C)c2ccc(C)c3c2c1C(C)=C(O)C3=O`: the GI50 was 36.3 µM in [10]; 34.9 µM in experiment [1]; 18.7 µM in experiment [2]; 69.3 µM in experiment [3]; 17.7 µM in experiment [4]; 17.1 µM in experiment [5]. Further, the GI50 was 31.4 µM in [7] and 18 µM in [8]. Further, the TGI in experiment [10] is > 100 µM; in experiment [1], > 100 µM; in experiment [2], 43.1 µM; in experiment [3], > 100 µM; in [4], 34.8 µM; in experiment [5] it was 41.6 µM. For the same compound, the TGI in [7] turned out to be 94.9 µM; in [8], 37.4 µM.
Regarding `CN(C)C=N[C@@H](C(=O)O)c1ccccc1`, the TGI in experiment [10], in experiment [1], in experiment [2], in experiment [3], in experiment [4] and in [5] was > 100 µM each time. Further, the TGI in experiment [7] and in experiment [8] was > 100 µM in each case.

For orientation: TGI means the concentration at which net growth stops. Lower therefore signals more potent growth arrest. What is called GI50 is the concentration giving 50% growth inhibition.
